Experimental data from ChEMBL document CHEMBL1201862, “PubChem BioAssay data set” (2004).
The source made the active and inactive calls.

Key:
[1] = viability loss in HEK293 cells – cell-based, plate reader, cherry-picked samples, cytotoxicity control, dose response (AID 743446); type: functional
[2] = blockers of bursicon-stimulated LGR2 cAMP reporter – cell-based, HEK293, CRE-luciferase reporter, cherry pick, set 2, dose response (AID 743343); type: functional;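 also: transfected cells were stimulated with diluted bursicon conditioned medium after compound addition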
[3] = A549 cell cytotoxicity, dose response, cytotoxicity control, plate reader, cherry-pick, antagonist series (AID 743412); type: functional, cell-based
[4] = blockade of melanocortin 4 receptor signaling – cell-based, plate reader, cherry pick, counter-screen for LGR2 antagonist project, dose response (AID 743444); type: functional;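 also: transfected HEK 293 cells stimulated with alpha-MSH peptide; potency of inhibitors of the alpha-MSH evoked signal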
[5] = target: Acyl-homoserine lactone acylase PvdQ (Pseudomonas aeruginosa (strain LESB58), UniProt Q9I194); assay: PvdQ acylase enzyme activity blockers – biochemical, fluorescence, plate reader and imaging, cherry-picks, dose response (AID 493231)
[6] = toxicity toward HepG2 liver cells – cell-based, plate reader, cherry-pick, antagonist series, cytotoxicity control, dose response (AID 743416); type: functional
[7] = target: T1, Voltage-gated N-type calcium channel alpha-1B subunit/Amyloid beta A4 precursor protein-binding family A member 1 (Homo sapiens, UniProt Q00975+Q02410); assay: disruptors of Mint-PDZ/N-type channel peptide interaction – biochemical, HTRF, SAR follow-up (AID 2489); type: functional
T1 sequence (Q00975 whole entry): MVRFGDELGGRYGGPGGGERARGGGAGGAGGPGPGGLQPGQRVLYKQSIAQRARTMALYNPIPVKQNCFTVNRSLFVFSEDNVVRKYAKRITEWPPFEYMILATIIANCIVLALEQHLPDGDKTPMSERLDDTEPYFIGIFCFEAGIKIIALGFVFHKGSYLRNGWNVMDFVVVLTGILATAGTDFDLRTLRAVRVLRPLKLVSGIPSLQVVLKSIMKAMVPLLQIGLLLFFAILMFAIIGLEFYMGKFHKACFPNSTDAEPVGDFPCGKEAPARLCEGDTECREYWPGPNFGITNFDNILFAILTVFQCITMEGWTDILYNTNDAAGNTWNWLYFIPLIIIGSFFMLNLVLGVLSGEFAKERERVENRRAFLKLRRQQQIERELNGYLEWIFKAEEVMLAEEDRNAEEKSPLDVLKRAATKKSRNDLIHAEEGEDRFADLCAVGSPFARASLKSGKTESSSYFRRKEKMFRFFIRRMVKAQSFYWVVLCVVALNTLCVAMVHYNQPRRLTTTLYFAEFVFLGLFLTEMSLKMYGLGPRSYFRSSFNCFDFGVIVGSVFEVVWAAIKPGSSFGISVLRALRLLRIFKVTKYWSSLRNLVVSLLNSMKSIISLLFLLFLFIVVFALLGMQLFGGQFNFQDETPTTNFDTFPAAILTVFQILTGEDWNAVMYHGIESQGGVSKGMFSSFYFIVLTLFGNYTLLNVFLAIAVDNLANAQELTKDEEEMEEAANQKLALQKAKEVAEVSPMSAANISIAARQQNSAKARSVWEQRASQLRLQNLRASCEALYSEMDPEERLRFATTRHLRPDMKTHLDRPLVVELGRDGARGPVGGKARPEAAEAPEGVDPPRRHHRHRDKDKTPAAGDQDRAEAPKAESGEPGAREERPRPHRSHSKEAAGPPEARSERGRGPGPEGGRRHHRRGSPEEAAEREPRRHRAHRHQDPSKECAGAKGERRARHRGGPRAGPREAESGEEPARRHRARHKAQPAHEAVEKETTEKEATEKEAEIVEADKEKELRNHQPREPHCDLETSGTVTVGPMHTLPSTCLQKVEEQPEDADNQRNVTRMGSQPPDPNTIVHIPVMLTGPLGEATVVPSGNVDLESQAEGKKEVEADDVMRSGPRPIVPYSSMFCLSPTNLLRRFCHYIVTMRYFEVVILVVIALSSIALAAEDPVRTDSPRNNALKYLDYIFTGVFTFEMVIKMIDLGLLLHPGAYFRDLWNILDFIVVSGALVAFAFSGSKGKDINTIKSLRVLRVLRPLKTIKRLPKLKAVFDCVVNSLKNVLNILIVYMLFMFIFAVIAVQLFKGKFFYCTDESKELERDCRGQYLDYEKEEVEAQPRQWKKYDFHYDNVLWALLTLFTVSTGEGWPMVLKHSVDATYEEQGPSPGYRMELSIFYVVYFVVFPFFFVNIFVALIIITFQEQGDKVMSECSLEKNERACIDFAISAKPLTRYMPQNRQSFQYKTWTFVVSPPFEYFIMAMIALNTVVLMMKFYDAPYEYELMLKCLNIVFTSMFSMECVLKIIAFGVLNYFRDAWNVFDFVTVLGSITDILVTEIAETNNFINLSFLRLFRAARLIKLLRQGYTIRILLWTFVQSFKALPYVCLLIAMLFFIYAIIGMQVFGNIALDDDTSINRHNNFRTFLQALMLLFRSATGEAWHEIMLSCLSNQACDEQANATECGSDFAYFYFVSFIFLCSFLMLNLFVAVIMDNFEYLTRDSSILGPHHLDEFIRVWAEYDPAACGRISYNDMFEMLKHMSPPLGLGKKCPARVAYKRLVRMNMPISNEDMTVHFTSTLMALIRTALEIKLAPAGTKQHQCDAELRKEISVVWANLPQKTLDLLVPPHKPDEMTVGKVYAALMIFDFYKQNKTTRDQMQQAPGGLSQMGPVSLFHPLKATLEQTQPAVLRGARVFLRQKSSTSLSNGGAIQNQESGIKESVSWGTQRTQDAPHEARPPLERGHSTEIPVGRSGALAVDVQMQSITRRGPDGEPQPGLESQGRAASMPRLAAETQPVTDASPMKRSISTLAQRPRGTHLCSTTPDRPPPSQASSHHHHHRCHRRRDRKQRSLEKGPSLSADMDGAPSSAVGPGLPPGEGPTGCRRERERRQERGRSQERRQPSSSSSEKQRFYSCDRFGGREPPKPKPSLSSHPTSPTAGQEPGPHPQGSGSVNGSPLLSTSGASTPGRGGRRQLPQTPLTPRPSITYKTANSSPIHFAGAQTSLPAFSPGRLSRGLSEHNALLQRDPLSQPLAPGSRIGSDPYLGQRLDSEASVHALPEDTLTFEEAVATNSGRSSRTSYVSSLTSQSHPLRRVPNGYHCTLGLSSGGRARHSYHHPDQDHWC
T1 sequence (Q02410 whole entry): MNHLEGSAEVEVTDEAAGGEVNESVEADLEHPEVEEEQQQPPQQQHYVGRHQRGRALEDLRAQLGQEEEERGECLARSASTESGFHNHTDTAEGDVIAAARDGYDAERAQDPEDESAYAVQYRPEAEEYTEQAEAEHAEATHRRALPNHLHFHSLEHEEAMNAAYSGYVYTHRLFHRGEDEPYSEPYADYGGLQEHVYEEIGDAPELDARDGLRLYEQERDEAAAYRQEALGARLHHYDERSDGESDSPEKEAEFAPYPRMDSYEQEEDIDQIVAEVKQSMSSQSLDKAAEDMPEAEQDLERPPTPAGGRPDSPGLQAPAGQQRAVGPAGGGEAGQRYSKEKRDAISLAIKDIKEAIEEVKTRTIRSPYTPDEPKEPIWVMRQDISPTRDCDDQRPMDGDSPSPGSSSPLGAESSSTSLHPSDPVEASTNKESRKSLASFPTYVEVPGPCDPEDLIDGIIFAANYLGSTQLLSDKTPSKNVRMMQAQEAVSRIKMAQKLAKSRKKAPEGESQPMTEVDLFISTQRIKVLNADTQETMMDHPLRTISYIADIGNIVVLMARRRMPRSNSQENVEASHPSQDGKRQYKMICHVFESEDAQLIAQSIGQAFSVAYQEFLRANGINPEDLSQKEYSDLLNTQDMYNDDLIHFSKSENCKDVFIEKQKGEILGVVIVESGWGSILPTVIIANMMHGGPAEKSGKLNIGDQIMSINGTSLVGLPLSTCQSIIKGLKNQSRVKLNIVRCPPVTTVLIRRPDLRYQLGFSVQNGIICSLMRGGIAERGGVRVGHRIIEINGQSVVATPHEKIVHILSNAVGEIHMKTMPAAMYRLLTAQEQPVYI

[8] = target: T1, Voltage-gated N-type calcium channel alpha-1B subunit/Amyloid beta A4 precursor protein-binding family A member 1; assay: disruptors of Mint-PDZ/N-type channel peptide interaction – biochemical, HTRF, set 2, SAR follow-up (AID 434980); type: functional
Troponin, cardiac muscle = Troponin, cardiac muscle (Homo sapiens, UniProt P19429+P45379+P63316); assay: Fluorescence-based biochemical high throughput dose response assay for activators of the calcium sensitivity of cardiac Regulated Thin Filaments (RTF). [Related pubchem assays (depositor defined):AID493008, AID493018, AID504382, AID504383]; type: protein-complex assay
[9] = BJeH cell viability loss – BJeH cells, dry powder, counter-screen for Ras selective lethality project, dose response (AID 493054); type: functional, cell-based
[10] = BJeHLT cell viability loss – BJeHLT cells, dry powder, counter-screen for Ras selective lethality project, dose response (AID 493052); type: functional, cell-based; details: Homo sapiens
[11] = target: Melanin-concentrating hormone receptor 1 (Homo sapiens, UniProt Q99705); assay: Late-stage fluorescence-based counterscreen for antagonists of the G-protein coupled receptor 7 (GPR7): cell-based dose response assay to identify antagonists of the melanin-concentrating hormone receptor 1 (MCHR1). [Related pubchem assays (depositor defined):AID1861, AID1880, AID1952, AID2148, AID2251, AID2257, AID485339]; type: functional;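 also: stimulated with 30 nM MCH peptide agonist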
[12] = target: Neuropeptides B/W receptor type 1 (Homo sapiens, UniProt P48145); assay: human NPBW1 receptor blockade, IC50 – cell-based, fluorescence, dose response, late-stage follow-up (AID 463251); type: functional
[13] = target: Kappa-type opioid receptor (Homo sapiens, UniProt P41145); assay: SAR analysis of small molecule agonists of the kappa opioid receptor via a luminescent beta-arrestin assay - Set 2. [Related pubchem assays (depositor defined):AID1777, AID1785, AID1786, AID1966, AID2133, AID2136, AID2284, AID449737]; type: functional
[14] = target: G2/mitotic-specific cyclin-B1 (Homo sapiens, UniProt P14635); assay: HeLa cell cycle G2/M accumulation – FACS, mechanism study for Wee1 degradation inhibitor project, late-stage follow-up, panel member Cyclin B Degradation (AID 2088)
Sequence of G2/mitotic-specific cyclin-B1 (P14635 whole entry): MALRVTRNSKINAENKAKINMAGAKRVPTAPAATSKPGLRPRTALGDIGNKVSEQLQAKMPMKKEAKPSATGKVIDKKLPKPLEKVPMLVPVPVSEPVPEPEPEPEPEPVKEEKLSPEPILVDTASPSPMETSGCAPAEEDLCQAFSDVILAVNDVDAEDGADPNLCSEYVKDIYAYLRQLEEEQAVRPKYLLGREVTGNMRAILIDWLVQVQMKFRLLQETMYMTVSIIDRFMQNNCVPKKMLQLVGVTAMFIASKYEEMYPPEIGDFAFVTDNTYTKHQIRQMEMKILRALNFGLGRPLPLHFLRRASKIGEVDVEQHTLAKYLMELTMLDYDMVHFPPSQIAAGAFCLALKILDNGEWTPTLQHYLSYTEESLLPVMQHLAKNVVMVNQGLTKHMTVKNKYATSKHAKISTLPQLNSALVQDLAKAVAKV

Wee1-like protein kinase = Wee1-like protein kinase (Homo sapiens, UniProt P30291); assay: HeLa cell cycle G2/M accumulation – FACS, mechanism study for Wee1 degradation inhibitor project, late-stage follow-up, panel member Wee1 Degradation (AID 2088)
Cytochrome P450 2C19 = Cytochrome P450 2C19 (Homo sapiens, UniProt P33261); assay: Cytochrome panel assay with activity outcomes. Panel member name: p450-cyp2c19 Compounds with AC50 equal or less than 10 uM are considered active; type: functional; details: read-out: AC50
Sequence of Cytochrome P450 2C19 (P33261 whole entry, the tested form may be a part): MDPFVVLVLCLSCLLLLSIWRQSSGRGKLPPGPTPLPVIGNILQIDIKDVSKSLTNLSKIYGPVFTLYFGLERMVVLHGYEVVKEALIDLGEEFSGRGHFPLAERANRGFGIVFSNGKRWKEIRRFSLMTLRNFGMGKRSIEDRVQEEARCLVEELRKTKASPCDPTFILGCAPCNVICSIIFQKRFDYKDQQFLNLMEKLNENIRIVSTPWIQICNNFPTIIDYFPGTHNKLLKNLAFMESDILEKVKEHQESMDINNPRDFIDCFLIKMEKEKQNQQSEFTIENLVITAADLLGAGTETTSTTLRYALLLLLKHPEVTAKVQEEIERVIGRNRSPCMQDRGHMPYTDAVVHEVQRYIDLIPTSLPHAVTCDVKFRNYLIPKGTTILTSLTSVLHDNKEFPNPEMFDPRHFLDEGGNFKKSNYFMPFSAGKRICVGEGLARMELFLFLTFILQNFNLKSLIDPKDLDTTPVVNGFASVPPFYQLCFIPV

[15] = target: Type-1 angiotensin II receptor (Homo sapiens, UniProt P30556); assay: agonist activity at AGTR1 – cell-based, uHTS hits, selectivity assay for APJ receptor agonist project, dose response (AID 488865); type: functional;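 also: beta-arrestin recruitment to AT1 measured by enzyme fragment complementation luminescence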
Sequence of Type-1 angiotensin II receptor (P30556 whole entry, the tested form may be a part): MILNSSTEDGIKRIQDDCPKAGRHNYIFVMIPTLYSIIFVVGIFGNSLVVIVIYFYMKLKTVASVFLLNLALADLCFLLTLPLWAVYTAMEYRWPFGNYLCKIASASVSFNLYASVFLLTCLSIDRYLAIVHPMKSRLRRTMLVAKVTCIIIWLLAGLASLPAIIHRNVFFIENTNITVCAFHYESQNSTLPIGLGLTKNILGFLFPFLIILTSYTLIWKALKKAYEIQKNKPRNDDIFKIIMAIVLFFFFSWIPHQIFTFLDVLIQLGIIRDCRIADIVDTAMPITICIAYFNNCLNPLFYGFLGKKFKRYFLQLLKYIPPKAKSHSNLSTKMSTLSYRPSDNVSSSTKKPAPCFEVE

Cytochrome P450 3A4 [16] = target: T2, Cytochrome P450 3A4 (Homo sapiens, UniProt P08684)
T2 sequence (P08684 whole entry): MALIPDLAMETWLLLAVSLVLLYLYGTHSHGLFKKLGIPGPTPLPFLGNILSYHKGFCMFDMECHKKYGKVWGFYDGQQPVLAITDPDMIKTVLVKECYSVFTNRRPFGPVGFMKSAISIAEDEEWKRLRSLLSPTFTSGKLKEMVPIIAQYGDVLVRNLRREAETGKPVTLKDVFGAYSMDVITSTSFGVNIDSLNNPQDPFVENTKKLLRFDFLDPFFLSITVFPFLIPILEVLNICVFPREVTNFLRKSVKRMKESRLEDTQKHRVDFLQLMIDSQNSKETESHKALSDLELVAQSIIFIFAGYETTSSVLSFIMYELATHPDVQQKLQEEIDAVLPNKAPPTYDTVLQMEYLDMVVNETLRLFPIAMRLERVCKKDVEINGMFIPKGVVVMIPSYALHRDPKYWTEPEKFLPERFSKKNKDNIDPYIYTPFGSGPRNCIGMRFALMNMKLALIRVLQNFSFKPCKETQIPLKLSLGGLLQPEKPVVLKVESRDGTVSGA

Cytochrome P450 3A4 [17] = target: T2, Cytochrome P450 3A4; details: Potency
[18] = target: E3 ubiquitin-protein ligase Mdm2/Protein Mdm4 (Homo sapiens, UniProt O15151+Q00987); assay: disruption of Mdm2/MdmX protein binding – luminescence detection, dose response (AID 504593); type: functional

CCOc1ccc(-c2cn3ccccc3n2)cc1
AC50 [1]: > 52 µM (inactive) | AC50 [2]: 5.05 µM (active) | AC50 [3]: > 52 µM (inactive) | AC50 [4]: 4.5 µM (active) | AC50 [5]: 92.1 µM (active) | AC50 [6]: > 52 µM (inactive)

COc1cccc(CCNC(=O)c2cc(-c3ccco3)nc3ccccc23)c1
IC50 [7]: > 56.8 µM (inactive) | IC50 [8]: > 56.8 µM (inactive)

O=C(COC(=O)c1ccc(O)cc1)Nc1ccc2c(c1)OCCO2
EC50 (Troponin, cardiac muscle): > 71.5 µM (inactive)

COc1ccc(N(C(=O)[C@@H](C)Cl)C(C(=O)NCCc2ccccc2)c2cccs2)cc1Cl (stereo partly specified)
AC50 [9]: > 454 µM (inactive) | AC50 [10]: > 454 µM (inactive)

CC(C)c1ccc(-n2ncc(Cl)c(Oc3ccc(N)cc3)c2=O)cc1
IC50 [11]: 7 µM (active) | IC50 [12]: 2.5 µM (active)

O=C(CN(Cc1cccs1)C(=O)c1ccccn1)NC1CCCCCC1
EC50 [13]: > 20 µM (inactive)

CCc1ccc(NC(=O)CCCOc2cc(=O)n(C)c3ccccc23)cc1
EC50 [14]: > 49.7 µM (inactive) | EC50 (Wee1-like protein kinase): > 49.7 µM (inactive)

Clc1ccccc1CSc1nnc(-c2ccncc2)o1
AC50 (Cytochrome P450 2C19): 0.126 µM (inconclusive) | EC50 [15]: > 100 µM (inactive) | AC50 (Cytochrome P450 3A4 [16]): 20 µM (inconclusive)

CC(C)c1cccc(=O)c(O)c1 [HINOKITIOL]
AC50 (Cytochrome P450 3A4 [17]): 0.631 µM (inconclusive) | IC50 [18]: 3.58 µM (active)
